Data from patent US20230114107A1, “COMBINATION ANTI-CANCER THERAPIES WITH INDUCERS OF IRON-DEPENDENT CELLULAR DISASSEMBLY” (Flagship Pioneering Innovations V, Inc., priority 2019, published 2023).

How the values were obtained:
[1] = test system: NFkB reporter in THP1 monocytes; assay: Screen for innate immune activation: NFkB reporter in THP1 monocytes added to drug-treated HT-1080 cells; format: cell-based, human; details: final compound concentration of 10 PM; reporter read 48h after THP-1 addition; FIG. 17
Protocol: Over 100 FDA-approved anticancer drugs and 6 inducers of ferroptosis were evaluated for their ability to induce innate immune activation, as measured by induction of an NFkB reporter in THP1 monocytes in vitro. The source of the approved anticancer drug compounds was plate Approved Oncology Drug (AOD) IX, available from the National Cancer Institute, Division of Cancer Treatment and Diagnosis (dtp.cancer.gov/organization/dscb/obtaining/available_plates.htm). Briefly, 20,000-30,000 HT-1080 cells were plated per well in 96 well plates, and 10 μl each of compounds from the AOD IX plates were added to each well, for a final compound concentration of 10 PM. The six inducers of ferroptosis listed above were also included in the experiment, as a comparison. After addition of the drug, cells were incubated overnight, and 50,000 THP-1 reporter cells were added to each well on the following day. Reporter induction was measured by colorimetry 48h after reporter cell addition.

[2] = test system: HT1080 fibrosarcoma cells; assay: Viability of HT1080 fibrosarcoma cells after 24 h treatment; format: cell-based; details: various doses
[3] = test system: NFKB reporter in THP1-Dual cells; assay: NFKB reporter activity in THP1-Dual monocytes co-cultured with treated HT1080 cells; format: cell-based, human
Protocol: HT1080 fibrosarcoma cells were treated with either control (DMSO) or various doses of Erastin, piperazine erastin (PE), or imidazole ketoerastin (IKE) for 24 hours prior to co-culture with THP1-Dual cells for an additional 24 hours. Erastin was purchased from Selleckchem (Houston, Tex.) and dissolved in DMSO. Subsequently, the THP1 supernatants were assessed for nuclear factor kappa-light-chain-enhancer of activated B cells (NFKB) or interferon regulatory factor (IRF) reporter activity.
HT1080 cells were acquired from ATCC and THP1-Dual cells were acquired from InvivoGen (San Diego, Calif.). THP1-Dual cells are human monocyte cells that induce reporter proteins upon activation of either NFKB or IRF pathways. Both cell types were cultured in 96-well plates for the duration of the assay. HT1080 cells were cultured in DMEM with 10% FBS, and THP1-Dual cells were cultured in RPMI with 10% FBS. 7,500 HT1080 cells were plated 24 hours prior to dosing with Erastin, PE, or IKE, with a final DMSO concentration of 0.5%. 24 hours post-treatment, THP1-Dual cells (25,000 cells/well) were added to the HT1080 cells. 24 hours later, 30 μl of supernatant was mixed with either 200 μl QuantiBlue (InvivoGen, San Diego, Calif.) (for NFKB reporter activity) or 50 μl QuantiLuc (for IRF reporter activity) and absorbance or luminescence was recorded on a Molecular Devices plate reader.
HT1080 fibrosarcoma cells were treated with various doses of Erastin (e.g. […], 0.16, 0.31, 0.63, 1.25, 2.5, 5, 10 or 20 μM) alone or in combination with a ferroptosis inhibitor (1 μM Ferrostatin-1, 1 μM Liproxstatin-1, 100 μM Trolox, 25 μM β-Mercaptoethanol or 100 μM Deferoxamine) for 24 hours prior to co-culture with THP1-Dual cells for an additional 24 hours. Ferrostatin-1 and Liproxstatin-1 were purchased from Selleckchem (Houston, Tex.) and dissolved in DMSO. Trolox was purchased from Cayman Chemical Company Inc and resuspended in DMSO. […] Subsequently, the THP1 supernatant was assessed for NFKB activity. […]
HT1080 fibrosarcoma cells were treated with various doses of Erastin (ferroptosis inducer), docetaxel (apoptosis inducer) or H2O2 (necrosis inducer) for 24 hours prior to co-culture with THP1-Dual cells for an additional 24 hours. […] Subsequently, the THP1 supernatants were assessed for nuclear factor kappa-light-chain-enhancer of activated B cells (NFKB).
HT1080 cells were acquired from ATCC and THP1-Dual cells were acquired from InvivoGen (San Diego, Calif.). […] 24 hours later, 30 μl of supernatant was mixed with either 200 μl QuantiBlue (InvivoGen, San Diego, Calif.) (for NFKB reporter activity) or 50 μl QuantiLuc (for IRF reporter activity) and absorbance or luminescence was recorded on a Molecular Devices plate reader.

[4] = test system: Caki-1 renal cell carcinoma cells; assay: Viability of Caki-1 renal cell carcinoma cells after treatment; format: cell-based
[5] = test system: NFKB reporter in THP1-Dual cells; assay: NFKB reporter activity in THP1-Dual monocytes co-cultured with treated Caki-1 cells; format: cell-based, human
Protocol: Caki-1 renal cell carcinoma cells were treated with either control (DMSO) or various doses of Erastin, for 24 hours prior to co-culture with THP1-Dual cells for an additional 24 hours. Erastin was purchased from Selleckchem (Houston, Tex.) and dissolved in DMSO. Subsequently, the THP1 supernatants were assessed for NFKB or IRF reporter activity. Caki-1 cells were acquired from ATCC and THP1-Dual cells acquired from InvivoGen (San Diego, Calif.). Both cell types were cultured in 96-well plates for the duration of the assay. 7,500 Caki-1 cells were plated 24 hours prior to dosing with Erastin, with a final DMSO concentration of 0.5%. 24 hours post-treatment, THP1-Dual cells (25,000 cells/well) were added to the Caki-1 cells. 24 hours later, 30 μl of supernatant was mixed with either 200 μl QuantiBlue (InvivoGen) or 50 μl QuantiLuc and absorbance or luminescence was recorded on a Molecular Devices plate reader. Caki-1 renal cell carcinoma cells were treated with either control (DMSO) or various doses of RSL3, for 24 hours prior to co-culture with THP1-Dual cells for an additional 24 hours. RSL3 was purchased from Selleckchem and dissolved in DMSO. Subsequently, the THP1 supernatants were assessed for NFKB or IRF reporter activity. Caki-1 cells were acquired from ATCC and THP1-Dual cells acquired from InvivoGen (San Diego, Calif.). Both cell types were cultured in 96-well plates for the duration of the assay. 7,500 Caki-1 cells were plated 24 hours prior to dosing with RSL3, with a final DMSO concentration of 0.5%. 24 hours post-treatment, THP1-Dual cells (25,000 cells/well) were added to the Caki-1 cells. 24 hours later, 30 μl of supernatant was mixed with either 200 μl QuantiBlue (InvivoGen, San Diego, Calif.) or 50 μl QuantiLuc and absorbance or luminescence was recorded on a Molecular Devices plate reader. […] Subsequently, the THP1 supernatant was assessed for NFKB reporter activity. Caki-1 cells were acquired from ATCC and THP1-Dual cells acquired from InvivoGen (San Diego, Calif.). Both cell types were cultured in 96-well plates for the duration of the assay.

[6] = test system: A20 B-cell leukemia cells; assay: Viability of A20 B-cell leukemia / lymphoma cells after treatment; format: cell-based; details: for viability of A20 lymphoma cells, dose dependence: GPX4 inhibitor 0.002-10 μM, 24 hours, FIG. 10A, 11A, 12A
[7] = test system: NFKB reporter in THP1-Dual cells; assay: NFKB reporter activity in THP1-Dual monocytes co-cultured with treated A20 cells; format: cell-based, human; details: for NFKB activity in THP1 cells, dose dependence: A20 lymphoma cells treated with GPX4 inhibitor, FIG. 10B, 11B, 12B
Protocol: A20 B-cell leukemia cells were treated with either control (DMSO) or various doses of RSL3, for 24 hours prior to co-culture with THP1-Dual cells for an additional 24 hours. RSL3 was purchased from Selleckchem (Houston, Tex.) and dissolved in DMSO. Subsequently, the THP1 supernatants were assessed for NFKB or IRF reporter activity.
A20 cells were acquired from ATCC and THP1-Dual cells acquired from InvivoGen (San Diego, Calif.). Both cell types were cultured in 96-well plates for the duration of the assay. 50,000 A20 cells were plated 24 hours prior to dosing with RSL3, with a final DMSO concentration of 0.5%. 24 hours post-treatment, THP1-Dual cells (25,000 cells/well) were added to the A20 cells. 24 hours later, 30 μl of supernatant was mixed with either 200 μl QuantiBlue (InvivoGen, San Diego, Calif.) or 50 μl QuantiLuc and absorbance or luminescence was recorded on a Molecular Devices plate reader.
A20 lymphoma cells were treated with various doses (e.g. 0.002, 0.005, 0.014, 0.041, 0.123, 0.370, 1.111, 3.333 and 10 μM) of a GPX4 inhibitor (RSL3, ML162 or ML210) in the presence or absence of 1 μM Ferrostatin-1 for 24 hours. ML162 was purchased from Cayman Chemical Company Inc and resuspended in DMSO. ML210 was purchased from Sigma-Aldrich and resuspended in DMSO. A20 lymphoma cells were also treated with DMSO as a negative control. After treatment with DMSO or a GPX4 inhibitor for 24 hours, the A20 lymphoma cells were co-cultured with THP1-Dual cells for an additional 24 hours. Subsequently, the THP1 supernatant was assessed for NFKB reporter activity. A20 cells were acquired from ATCC and THP1-Dual cells were acquired from InvivoGen (San Diego, Calif.). Both cell types were cultured in 96-well plates for the duration of the assay.

[8] = ferroptosis, apoptosis, necrosis inducers compared, FIG. 15A
[9] = HT1080 cells treated with ferroptosis, apoptosis or necrosis inducer, FIG. 15B
[10] = HT1080 cells treated 24 hours, co-culture 24 hours, vs DMSO, FIG. 1B, 1D

SMILES: CCOc1ccccc1-n1c(C(C)N2CCN(C(=O)COc3ccc(Cl)cc3)CC2)nc2ccccc2c1=O (centres unmarked) [Erastin]
- increase in NFkB activity relative to the baseline [1]: 3.2 fold

SMILES: OO [Example H2O2, H2O2]
- viability of HT1080 cells [2, 8]: negatively affected the viability
- NFKB signaling in THP1 monocytes [3, 9]: did not have this same effect

SMILES: CCOC(=O)c1ccc(NC2CCCCC2)c(N)c1 [Ferrostatin-1]
- effect on GPX4 inhibitor-decreased viability of Caki-1 renal carcinoma cells ([4]; 1 μM Ferrostatin with RSL3 or ML162, 24 hours): attenuated
- effect on GPX4 inhibitor-increased NFKB activity in THP1 cells ([5]; Caki-1 cells, 1 μM Ferrostatin with RSL3 or ML162): attenuated
- effect on GPX4 inhibitor-decreased viability of A20 lymphoma cells ([6]; 1 μM Ferrostatin-1 with RSL3, ML162 or ML210, 24 hours): attenuated
- effect on GPX4 inhibitor-increased NFKB activity in THP1 cells ([7]; A20 cells, 1 μM Ferrostatin-1 with RSL3, ML162 or ML210): attenuated

SMILES: CC(C)Oc1ccc(C(=O)Cn2ccnc2)cc1-n1c(CN2CCN(C(=O)COc3ccc(Cl)cc3)CC2)nc2ccccc2c1=O [IKE, imidazole ketoerastin]
- viability of HT1080 cells ([2]; FIG. 1A, 1C): negatively affected the viability
- NFKB signaling in THP1 monocytes [3, 10]: elicited NFKB signaling in THP1 monocytes
- increase in NFkB activity relative to the baseline [1]: 2.4 fold

SMILES: COc1ccc(N(C(=O)CCl)C(C(=O)NCCc2ccccc2)c2cccs2)cc1Cl (centres unmarked) [ML162]
- viability of Caki-1 renal carcinoma cells, dose dependence ([4]; GPX4 inhibitor various doses, 24 hours, FIG. 13A, 14A): decreased viability of the cells in a dose dependent manner
- NFKB activity in THP1 cells, dose dependence ([5]; Caki-1 cells treated with RSL3 or ML162, FIG. 13B, 14B): increased NFKB activity in THP1 cells in a dose dependent manner
- viability of A20 lymphoma cells, dose dependence [6]: decreased viability of the cells in a dose dependent manner
- NFKB activity in THP1 cells, dose dependence [7]: increased NFKB activity in THP1 cells in a dose dependent manner

SMILES: Cc1onc(C(=O)N2CCN(C(c3ccc(Cl)cc3)c3ccc(Cl)cc3)CC2)c1[N+](=O)[O-] [ML210]
- viability of A20 lymphoma cells, dose dependence [6]: decreased viability of the cells in a dose dependent manner
- NFKB activity in THP1 cells, dose dependence [7]: increased NFKB activity in THP1 cells in a dose dependent manner

SMILES: CC(C)Oc1ccc(CN2CCNCC2)cc1-n1c(CN2CCN(C(=O)COc3ccc(Cl)cc3)CC2)nc2ccccc2c1=O [PE, piperazine erastin]
- viability of HT1080 cells ([2]; FIG. 1A, 1C): negatively affected the viability
- NFKB signaling in THP1 monocytes [3, 10]: elicited NFKB signaling in THP1 monocytes

SMILES: CC(=O)O[C@@]12CO[C@@H]1C[C@H](O)[C@@]1(C)C(=O)[C@H](O)C3=C(C)[C@@H](OC(=O)[C@H](O)[C@@H](NC(=O)OC(C)(C)C)c4ccccc4)C[C@@](O)([C@@H](OC(=O)c4ccccc4)[C@H]21)C3(C)C [docetaxel, Docetaxel]
- viability of HT1080 cells [2, 8]: negatively affected the viability
- NFKB signaling in THP1 monocytes [3, 9]: did not have this same effect
